Assay results: patent US11590129B2, “Combination therapy with an antitumor alkaloid” (PHARMA MAR, S.A., priority 2010, dated 2023)
Where two headings read alike, the source gives them in different places. Starred links: 1 amine or outer side, 2 acyl side, 3 side chain; linkers in the order of their positions; H or OH if unused. Positions of bridges follow the written chain, without caps; N, C: chain ends. Non-standard residues stand in square brackets, D forms with d. Residues, ends and D or L forms follow the SMILES beside them. Chains are numbered I, II in the order given. Actinocin(9to1) = Cc1c2oc3c(C)ccc(C(=O)[*:1])c3nc-2c(C(=O)[*:2])c(N)c1=O; NMeV = CN[C@H](C(=O)O)C(C)C; Sar = CNCC(=O)O

Assays:
[1] = system: A549 human lung carcinoma cell line; assay: MTT cytotoxicity assay in A549 cells: IC50 of single agents and combinations with PM01183; format: cell-based
Method: (§1) Additional serial dilutions were prepared in serum-free culture medium to achieve a final 4× concentration. Aliquots of 50 μL of each diluted compound were added per well.
A549 was the human lung carcinoma cell line selected for this assay.
(§2) a. […] Briefly, cells were harvested and seeded in 96 well microtiter plates at a density of 5,000 cells in 150 μL of culture medium and incubated for 24 hours in drug-free medium before treatment with vehicle alone or test compounds for 72 h.
(§3) The cytotoxic effect was measured by the MTT reduction assay, in which 3-(4,5-Dimethylthiazol-2-yl)-2,5-diphenyltetrazolium bromide, a tetrazole, which is reduced to purple formazan in the mitochondria of living cells, was used. MTT (50 μL of 1 mg/mL stock solution) was added to the wells and incubated for 8 hours at 37° C. until formazan crystals were formed. After gently removing the culture medium, DMSO was added to dissolve the insoluble purple formazan product into a colored solution. […] Results were expressed as percentage of control cell growth.
(§4) b. In a second set of assays, A549 human tumor cells were incubated with PM01183 in combination with each of the agents mentioned above.
(§5) As a visual aid, response values were plotted on a scatter plot with dose ratios given on the x-axis and % response values on the y-axis. […] In cases where response values at the two endpoints were approximately equivalent, points lying above or below this predicted line of additivity could be interpreted as representing antagonistic or synergistic drug interaction, respectively.

[2] = system: SK-MEL-2 human melanoma cell line; assay: cells; details: Homo sapiens, SK-MEL-2, 72 h
Method: as §2, §3, §4, §5, §1
SK-MEL-2 was the human melanoma cell line selected for this assay.

[3] = system: PC-3 human prostate cancer cell line; assay: cells
Method: as §2, §3, §4, §5, §1
PC-3 was the human prostate adenocarcinome cell line selected for this assay.

[4] = system: HGC-27 human gastric carcinoma cell line; assay: cells
Method: as §2, §3, §4, §5, §1
HGC-27 was the human gastric carcinoma cell line selected for this assay.

[5] = system: IGROV-1 human ovarian adenocarcinoma cell line; assay: cells
Method: as §2, §3, §4, §5, §1
IGROV-1 was the human ovarian adenocarcinoma cell line selected for this assay.

[6] = system: HepG2 human hepatocellular liver carcinoma cell line; assay: MTT cytotoxicity assay in HepG2 cells: IC50 of single agents and combinations with PM01183; format: cell-based; details: Homo sapiens, HepG2, 72 h
Method: as §2, §3, §4, §5, §1
HepG2 was the human hepatocellular liver carcinoma cell line selected for this assay.

[7] = system: MDA-MB-231 human breast adenocarcinoma cell line; assay: cells
Method: as §2, §3, §4, §5, §1

[8] = system: RXF-393 human kidney carcinoma cell line; assay: cells
Method: as §2, §3, §4, §5, §1

[9] = system: HT-29 human colon adenocarcinoma cell line; assay: cells
Method: as §2, §3, §4, §5, §1
HT-29 was the human colon adenocarcinoma cell line selected for this assay.

[10] = system: U87-MG human glioblastoma cell line; assay: cells; details: Homo sapiens, U-87 MG, 72 h
Method: as §2, §3, §4, §5, §1
U87-MG was the human glioblastoma cell line selected for this assay.

HGC-27 tumors = assay: Human gastric tumor xenografts (HGC-27) in athymic nude mice, tumor volume % T/C; format: in vivo
Method: (§6) Female athymic nude mice (Harlan Laboratories Models, S.L. (Barcelona, Spain) were utilized for all experiments. Animals were housed in individually ventilated cages, up to ten per cage in a 12-hour light-dark cycle at 21-23° C. and 40-60% humidity. The mice were allowed free access to irradiated standard rodent diet and sterilized water. Animals were acclimated for at least 5 days prior to tumor implantation with a tumor cell suspension.
HGC-27 cells were grown at 37° C. with 5% CO2 in Iscove's modified Dulbeco's medium (IDMD).
(§7) PM01183 was provided in the form of vials of lyophilized PM01183 cake which was reconstituted with water for infusion to a concentration of 0.2 mg/mL. The PM01183 stock solution was further diluted in 5% glucose solution for injection to the dosing formulation concentrations. Cisplatin and 5-fluorouracil were provided as solutions prepared by diluting the product with 0.9% saline solution for injection to the target final concentration.
(§8) Dose level groups were administered either as single agents or in combination.
Comparison of the median tumor volume in the treatment groups (T) to the median tumor volume in the control group (T/C×100%) was used for evaluation of the antitumor efficacy.

[11] = system: A673 human rhabdomyosarcoma cell line; assay: cells
Method: as §2, §3, §4, §5, §1
A673 was the human rhabdomyosarcoma cell line selected for this assay.

[12] = system: PANC-1 human pancreatic carcinoma cell line; assay: cells
Method: as §2, §3, §4, §5, §1
PANC-1 was the human pancreatic carcinoma cell line selected for this assay.

HT1080 tumors = assay: Human fibrosarcoma (HT1080) orthotopically implanted in athymic nude mice, total diameter (tumor+leg) % T/C; format: in vivo
Method: as §6
HT1080 cells were grown at 37° C. with 5% CO2 in Minimum Essential Medium Eagle (MEME). Each animal was orthotopically implanted into gastroecnemius muscle by an intramuscular injection using 26G needle and a 1 cc syringe, with 5×10^6 HT1080 cells, from in vitro passage 9, suspended in serum free medium, without antibiotics.
Total diameter (tumor+leg) measurements were determined by using digital caliper (Fowler Sylvac, S235PAT). This total diameter and animal body weights were measured 2-3 times per week starting from the first day of treatment.
Treatment tolerability was assessed by monitoring body weight evolution, clinical signs as well as evidences of local damage in the injection site.
as §7, with “Dacarbazine was” for “Cisplatin and 5-fluorouracil were”, “in the form of a solution” for “as solutions”, “5% glucose” for “0.9% saline”
as §8
Comparison of the median total diameter (tumor+leg) in the treatment groups (T) to the median total diameter (tumor+leg) in the control group (T/C×100%) was used for evaluation of the antitumor efficacy.

[13] = 5-fluorouracil 12.5 mg/kg iv days 0,7
[14] = 5-fluorouracil 37.5 mg/kg iv days 0,7
[15] = 5-fluorouracil 50.0 mg/kg iv days 0,7

## O=c1[nH]cc(F)c(=O)[nH]1 [5-FU, 5-fluorouracil]
[1]; Homo sapiens, A549, 72 h
  IC50: 92.3 µM
[2]
  IC50: 700 µM
[3]; Homo sapiens, PC-3, 72 h
  IC50: 1000 µM
[4]; Homo sapiens, HGC-27, 72 h
  IC50: 10 µM
[5]; Homo sapiens, IGROV-1, 72 h
  IC50: 90 µM
[6]
  IC50: 4.5 µM
[7]; Homo sapiens, MDA-MB-231, 72 h
  IC50: 90 µM
[8]; Homo sapiens, RXF 393, 72 h
  IC50: 300 µM
[9]; Homo sapiens, HT-29, 72 h
  IC50: 9 µM
[10]
  IC50: 1000 µM
HGC-27 tumors; [13]
  % T/C on day 0: 100.7%
  % T/C on day 2: 81.7%
  % T/C on day 5: 101.3%
  % T/C on day 7: 102.8%
  % T/C on day 9: 98.6%
  % T/C on day 12: 90.5%
  % T/C on day 14: 83.8%
HGC-27 tumors; [14]
  % T/C on day 0: 99.4%
  % T/C on day 2: 86.9%
  % T/C on day 5: 86.9%
  % T/C on day 7: 78.6%
  % T/C on day 9: 73.2%
  % T/C on day 12: 76.7%
  % T/C on day 14: 83.1%
HGC-27 tumors; [15]
  % T/C on day 0: 100.3%
  % T/C on day 2: 81.2%
  % T/C on day 5: 82.3%
  % T/C on day 7: 81.1%
  % T/C on day 9: 75.6%
  % T/C on day 12: 69.6%
  % T/C on day 14: 60.7%

## Cc1c2oc3c(C)ccc(C(=O)N[C@@H]4C(=O)N[C@H](C(C)C)C(=O)N5CCC[C@H]5C(=O)N(C)CC(=O)N(C)[C@@H](C(C)C)C(=O)O[C@@H]4C)c3nc-2c(C(=O)N[C@@H]2C(=O)N[C@H](C(C)C)C(=O)N3CCC[C@H]3C(=O)N(C)CC(=O)N(C)[C@@H](C(C)C)C(=O)O[C@@H]2C)c(N)c1=O [Actinomycin D, actinomycin D] (I: T[dV]P[Sar][NMeV] / II: T[dV]P[Sar][NMeV]; ester I:1-I:C, II:1-II:C; linker I:N-II:N via Actinocin(9to1))
[1]; A549, 72 hours drug exposure, MTT, read-out: IC50
  IC50: 0.0047 µM
[11]; A673, 72 hours drug exposure, MTT
  IC50: 0.000956 µM
[3]; PC-3, 72 hours drug exposure, MTT
  IC50: 0.01 µM
[12]; PANC-1, 72 hours drug exposure, MTT
  IC50: 0.022 µM
[4]; HGC-27, 72 hours drug exposure, MTT
  IC50: 0.00374 µM
[5]; IGROV-1, 72 hours drug exposure, MTT
  IC50: 0.00329 µM
[7]; MDA-MB-231, 72 hours drug exposure, MTT
  IC50: 0.000454 µM
[8]; RXF-393, 72 hours drug exposure, MTT
  IC50: 0.000709 µM
[9]; HT-29, 72 hours drug exposure, MTT
  IC50: 0.00327 µM

## CC(C)C[C@H](NC(=O)[C@H](Cc1ccccc1)NC(=O)c1cnccn1)B(O)O [Bortezomib, bortezomib]
[1]; Homo sapiens, A549, 72 h
  IC50: 0.0031 µM
[3]; Homo sapiens, PC-3, 72 h
  IC50: 0.8 µM
[12]; Homo sapiens, PANC-1, 72 h
  IC50: 0.416 µM
[4]; Homo sapiens, HGC-27, 72 h
  IC50: 0.0056 µM
[6]
  IC50: 0.39 µM
[9]; Homo sapiens, HT-29, 72 h
  IC50: 0.00615 µM
[10]
  IC50: 0.4 µM

## CN(C)/N=N/c1[nH]cnc1C(N)=O [Dacarbazine, dacarbazine]
[1]; Homo sapiens, A549, 72 h
  IC50: 600 µM
[11]; Homo sapiens, A673, 72 h
  IC50: 300 µM
[2]
  IC50: 630 µM
[4]; Homo sapiens, HGC-27, 72 h
  IC50: 346 µM
[5]; Homo sapiens, IGROV-1, 72 h
  IC50: 398 µM
[7]; Homo sapiens, MDA-MB-231, 72 h
  IC50: 19.2 µM
[8]; Homo sapiens, RXF 393, 72 h
  IC50: 794 µM
[9]; Homo sapiens, HT-29, 72 h
  IC50: 24.7 µM
[10]
  IC50: 700 µM
HT1080 tumors; Dacarbazine 37.5 mg/kg
  % T/C on day 0: 100%
  % T/C on day 2: 51.8%
  % T/C on day 4: 54.3%
  % T/C on day 7: 65.4%
  % T/C on day 9: 61.3%
  % T/C on day 11: 47.9%
  % T/C on day 14: 55.1%
  % T/C on day 16: 62.1%
HT1080 tumors; Dacarbazine 112.5 mg/kg
  % T/C on day 0: 100%
  % T/C on day 2: 48.1%
  % T/C on day 4: 34.3%
  % T/C on day 7: 53.8%
  % T/C on day 9: 48.0%
  % T/C on day 11: 37.5%
  % T/C on day 14: 43.2%
  % T/C on day 16: 53.2%
HT1080 tumors; Dacarbazine 150.0 mg/kg
  % T/C on day 0: 100%
  % T/C on day 2: 40.7%
  % T/C on day 4: 28.6%
  % T/C on day 7: 30.8%
  % T/C on day 9: 44.0%
  % T/C on day 11: 37.5%
  % T/C on day 14: 44.9%
  % T/C on day 16: 57.3%
